Measurements as given in patent US20070135366A1, “Method for assessing cancerous state” (SUMITOMO CHEMICAL COMPANY, LIMITED., priority 2003, published 2007).

What was measured:
[1] = tested on: Fibrillin2 gene expression in pancreatic cancer cell line HPAC; test: Effect of methylation inhibitor on expression of Fibrillin2 gene (Real Time PCR of mRNA-derived DNA) in HPAC; format: cell-based, human; settings: added on first and third day after seeding, cells recovered on fourth day
Experimental: (§1) seven kinds of human-derived pancreatic cancer cell lines (BXPc3, HPAF-II, Capan-2, MiaPaCa-2, Hs766T, PANC-1 and HPAC) and immortal (normal) pancreatic ductal epithelial cells lines (HPDE-4/E6E7 and HPDE6-E6E7c7) were cultured to 70% confluent in an exclusively used medium, and thereafter, each cell was corrected. 1 ml of an ISOGEN solution (Nippon Gene) was mixed with collected each cell (wet weight about 100 mg), this was homogenized, and 0.2 ml of chloroform was added thereto to suspend them. After suspending, the mixture was centrifuged (4° C., 15000×g, 15 minutes) to recover the supernatant. […]
(§2) A reaction solution of PCR was used which was obtained by mixing 50 ng of a cDNA as a template, each 1 μl of two kinds of 10 pmol/μl aforementioned primer solution, 4 μl of 2.5 mM dNTP, 4 μl of 5 mM dUTP, 5 μl of 10×SYBR Green PCR Buffer, 6 μl of 25 mM MgCl2 and 0.3 μl of a 5U/μl thermos table DNA polymerase (AmpliTaq Gold), 0.5 μl of AmpEraseUNG and adding sterilized ultrapure water thereto to an amount of solution of 50 μl. […] When a DNA derived from mRNA of Fibrillin2 gene and GAPDH gene was amplified, after the reaction solution was retained at 95° C. for 10 minutes, Real Time PCR was performed at the conditions under which each cycle was 30 seconds at 95° C., 30 seconds at 59° C. and 30 seconds at 72° C. to quantitate Fibrillin2 gene and GAPDH gene.

[2] = tested on: Fibrillin2 gene expression in pancreatic cancer cell line PANC-1; test: Effect of methylation inhibitor on expression of Fibrillin2 gene (Real Time PCR of mRNA-derived DNA) in PANC-1; format: cell-based, human; settings: added on first and third day after seeding, cells recovered on fourth day
Experimental: as §1, §2

Measured: DNA derived from a mRNA of Fibrillin2 gene (expression of Fibrillin2 gene)

Nc1ncn([C@H]2C[C@H](O)[C@@H](CO)O2)c(=O)n1 [5Aza-dC, 5-aza-2′-deoxytidine]
detected: [1]; HPAC cultured in the presence of 0.5 μM 5Aza-dC | [1]; HPAC cultured in the presence of 1 μM 5Aza-dC | [2]; PANC-1 cultured in the presence of 0.5 μM 5Aza-dC | [2]; PANC-1 cultured in the presence of 1 μM 5Aza-dC
